In this test the target is T1, MtbPurT (Mycobacterium tuberculosis, UniProt P95197).
T1 construct: gene purT
In words: biochemical.

These results are taken from article PMC6968694 (Emerging Microbes & Infections, 2020).

What is called Kd is the equilibrium constant for the complex coming apart. Higher therefore signals lower affinity.

T1 sequence (P95197 entry or part of it): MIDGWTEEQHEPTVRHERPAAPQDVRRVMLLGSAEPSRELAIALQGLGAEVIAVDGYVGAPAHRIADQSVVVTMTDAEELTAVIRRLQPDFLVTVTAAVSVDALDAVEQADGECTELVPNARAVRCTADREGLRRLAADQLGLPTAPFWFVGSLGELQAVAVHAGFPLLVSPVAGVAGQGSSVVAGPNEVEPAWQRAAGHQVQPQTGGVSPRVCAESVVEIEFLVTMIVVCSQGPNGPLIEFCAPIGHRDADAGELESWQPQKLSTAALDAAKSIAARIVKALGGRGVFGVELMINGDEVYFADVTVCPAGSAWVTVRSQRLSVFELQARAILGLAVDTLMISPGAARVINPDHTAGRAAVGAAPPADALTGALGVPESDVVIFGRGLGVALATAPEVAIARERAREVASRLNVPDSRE

For `Nc1ncnc2c1ncn2[C@@H]1O[C@H](CO[P@](=O)(O)O[P@](=O)(O)O[P@@](=O)(O)S)[C@@H](O)[C@H]1O` [ATPγS], binding was put at a Kd of 207 ± 8.02 µM.
